# Experimental data from publication PMC9655717, “New Molecules of Diterpene Origin with Inhibitory Properties toward α-Glucosidase” (International Journal of Molecular Sciences, 2022).
# Legend:
# [1] = DPPH radical scavenging assay; conditions: DPPH 0.1 mM in methanol, 25°C, 30 min
# Description: DPPH radical scavenging assay as described by Ha. The hydrogen atom donating ability of the plant extractives was determined by the decolorization of methanol solution of 2,2-diphenyl-1-picrylhydrazyl (DPPH). DPPH produces purple color in methanol solution and fades to shades of yellow color in the presence of antioxidants. […]
# DPPH (0.1 mM) was diluted in methanol. 200 μL of this solution was added to 1.3 μL of various concentrations of compounds in DMSO (256.0, 64.0, 16.0, and 4.0 μg/mL). The mixture was performed by a 96-well plate at 25 °C in 30 min. Then, absorbance was determined by Epoch™ Microplate Spectrophotometer (at 517 nm). The percentage of DPPH quenching activity was computed by the following formula:
# Inhibitory percentage SC (%) = [(Ao - A1)/Ao] × 100. where AO was defined as the absorbance of control reaction, and A1 represented for the absorbance in the presence of test or standard sample. Each experiment was repeated three times. Quercetin was used as a reference compound. […]
# [2] = test system: Bacillus subtilis (ATCC 6633); assay: Antimicrobial broth microdilution; format: cell-based; conditions: ATCC6633, B. subtilis
# Description: (§1) Table S2. The result of antimicrobial tests of compounds 38, 45, 48 and 50.
# (§2) Gram (+) strains Gram (-) strains Fungi
# (§3) Compound Values (µg/ml) S. aureus B. L. S. E. P. C. subtilis fermentum enterica coli aeruginosa albican
# (§4) The antimicrobial activity was determined by broth microdilution method as reported by. Broth dilution testing is one of the common methods used for determination of the MICs and IC50. The compounds are examined for visible bacterial growth as evidenced by turbidity. […]
# (§5) S1.5. In vitro antimicrobial activity study of compounds 38, 45, 48 and 50 The Gram-positive bacteria: Bacillus subtilis (ATCC 6633), Lactobacillus fermentum (N4), Staphylococcus aureus (ATCC 13709); Gram -negative bacteria: Escherichia coli (ATCC 25922), Pseudomonas aeruginosa (ATCC 15442), Salmonella enterica; Yeast: Candida albicans (ATCC 10231) were obtained from American Type Culture Collection. The bacterial […]
# (§6) Sabourand 2% dextrose broth, were purchased from Merck. […]
# (§7) remaining at –80 0 C. Before assay, they were activated by culture medium and, adjusted the concentration to 5x10^5 CFU/mL. 10 μL of each concentration of each test […]
# (§8) further incubated at 37 °C within 16-24h. The experiment was triplicated. Positive […]
# (§9) medium without bacteria as a negative control. Ampicillin was used as a reference […]
# (§10) inhibiting 50% the visible growth of the tested microorganisms. MIC, IC50 values are typically expressed as molar concentration. […]
# (§11) treated with sample different concentrations on 96-well plates. Untreated cells represented the controls. […]
# (§12) crystals are visible. Remove MTT and add DMSO solution (100 μL). The optical density […]
# (§13) are evaluated to have cytotoxic activity.
# [3] = test system: Candida albicans (ATCC 10231); assay: Antimicrobial broth microdilution; format: cell-based; conditions: ATCC10231, C. albican
# Description: as §1, §2, §3, §4, §5, §6, §7, §8, §9, §10, §11, §12, §13
# [4] = test system: Escherichia coli (ATCC 25922); assay: Antimicrobial broth microdilution; format: cell-based; conditions: ATCC25922, E. coli
# Description: as §1, §2, §3, §4, §5, §6, §7, §8, §9, §10, §11, §12, §13
# [5] = test system: Lactobacillus fermentum (N4); assay: Antimicrobial broth microdilution; format: cell-based; conditions: L. fermentum
# Description: as §1, §2, §3, §4, §5, §6, §7, §8, §9, §10, §11, §12, §13
# [6] = test system: Pseudomonas aeruginosa (ATCC 15442); assay: Antimicrobial broth microdilution; format: cell-based; conditions: ATCC15442, P. aeruginosa
# Description: as §1, §2, §3, §4, §5, §6, §7, §8, §9, §10, §11, §12, §13
# Salmonella enterica = assay: Antimicrobial broth microdilution; format: cell-based; conditions: S. enterica
# Description: as §1, §2, §3, §4, §5, §6, §7, §8, §9, §10, §11, §12, §13
# [7] = test system: Staphylococcus aureus (ATCC 13709); assay: Antimicrobial broth microdilution; format: cell-based; conditions: ATCC13709, S. aureus
# Description: as §1, §2, §3, §4, §5, §6, §7, §8, §9, §10, §11, §12, §13
# MTT cytotoxicity assay = conditions: human
# Description: The cytotoxic activity of compounds was evaluated against four cancer cell lines KB, Hep-G2, Lu-1 and MCF-7, using colorimetric MTT assay. […]
# MTT assay was used to determine the cytotoxic activity of compounds with human cancer cell lines acquired from the American Type Culture Collection (ATCC): epidermoid carcinoma (KB, ATCC number CCL-17), hepatocellular carcinoma (HepG2, ATCC number HB-8065), lung adenocarcinoma LU-1 (ATCC number HTB - 57TM), breast adenocarcinoma MCF-7 (ATCC number HTB - 22TM. Cells were cultured in medium DMEM supplemented with 10% Fetal bovine serum (FBS), 1% Penicillin and Streptomycin and 1% L-glutamine, under a humidified atmosphere of 5% CO2 at 37°C.
# Compounds were dissolved in DMSO at 40 mg/mL and a series of dilutions for each compound was prepared to final concentrations of 256, 64, 16, 4 and 1 μg/mL. Cells were separated with trypsin and seeded in each well with 3 x10^4 cells per ml and were treated with sample different concentrations on 96-well plates. Untreated cells represented the controls. After 72h of treatment, an MTT solution (10 μl, 5 mg/mL) of phosphate buffer was added to each well for 4 h until intracellular purple formazan crystals are visible. Remove MTT and add DMSO solution (100 μL). The optical density of the solution was determined by Epoch™ Microplate Spectrophotometer at 540 nm. The inhibition ratio was calculated based on the optical densities from the three replicate […]
# as §13
smiles,measurement,setting,value
"C#CCOC(=O)C1(C)CCCC2(C)C1CCC13C=C(C(C)C)C(CC12)c1c(O)cc2c(C(=O)OC)c(C)[nH]c2c13 (stereo not shown) [Compound 45, Methyl 7-propynyl 1-hydroxy-13-isopropyl-7,10a,2′-trimethyl-5,6,6b,7,8,9,10,10a,10b,11,12,13-dodecahydro-12,4b-ethenophenanthro [2,1-g]indole-7,1′-dicarboxylate]","IC50 values, antioxidant test (DPPH)",[1],> 256 µg/mL
same,IC50,[2],> 256 µg/mL
same,MIC,[2],> 256 µg/mL
same,IC50,[3],> 256 µg/mL
same,MIC,[3],> 256 µg/mL
same,IC50,[4],> 256 µg/mL
same,MIC,[4],> 256 µg/mL
same,IC50,[5],> 256 µg/mL
same,MIC,[5],> 256 µg/mL
same,IC50,[6],> 256 µg/mL
same,MIC,[6],> 256 µg/mL
same,IC50,Salmonella enterica,> 256 µg/mL
same,MIC,Salmonella enterica,> 256 µg/mL
same,IC50,[7],> 256 µg/mL
same,MIC,[7],> 256 µg/mL
same,IC50 at 72 h,MTT cytotoxicity assay; Hep-G2 hepatocellular carcinoma cells (ATCC HB-8065),47.2 ± 1 µg/mL
same,IC50 at 72 h,MTT cytotoxicity assay; KB epidermoid carcinoma cells (ATCC CCL-17),42.2 ± 0.84 µg/mL
same,IC50 at 72 h,MTT cytotoxicity assay; Lu-1 lung adenocarcinoma cells (ATCC HTB-57),16 ± 0.36 µg/mL
same,IC50 at 72 h,MTT cytotoxicity assay; MCF-7 breast adenocarcinoma cells (ATCC HTB-22),30.2 ± 0.8 µg/mL
